Laboratory results reported in US20230000813A1, “COMPOUND FOR THE TREATMENT OF BOVINE OR SWINE RESPIRATORY DISEASE” (Intervet Inc., priority 2016, published 2023).
In brackets after ≈: the same amount, converted by molar mass. Several values for one entry are separate records, joined by “and”; a condition that tells them apart may be missing. Equal values may be shown once. Marks after values point to notes of the source that are not given here.

Experiments:
[1] = tested on: Staphylococcus aureus SA 6114 (ATCC 29213, reference strain); test: MIC, broth-microdilution (CLSI VET01-A4); format: cell-based; conditions: strain SA 6114
Protocol: (§1) The Minimum inhibitory concentrations (MIC) of compounds according to the invention were determined by the broth-microdilution method according to CLSI document VET01-A4.
(§2) Microdilution trays containing a doubling dilution series of the test compound were used for the tests.
(§3) The MIC results were interpreted according to the CLSI documents VET01-S3. The lowest concentration of compound at which no visible growth (i.e. no turbidity) detected by the unaided eye was recorded as the MIC.

[2] = tested on: Acinetobacter baumanii AB 16496 (ATCC 19606, reference strain); test: MIC, broth-microdilution (CLSI VET01-A4); format: cell-based; conditions: strain AB 16496
Protocol: as §1, §2, §3

[3] = tested on: Pasteurella multocida PM 14426 (0006-439, BRD field isolate, macrolide-resistant); test: MIC, broth-microdilution (CLSI VET01-A4); format: cell-based; conditions: strain PM 14426, macrolide-resistant
Protocol: as §1, §2, §3

[4] = tested on: Mannheimia haemolytica MH 12180 (KLI-02944, BRD field isolate); test: MIC, broth-microdilution (CLSI VET01-A4); format: cell-based; conditions: strain MH 12180
Protocol: as §1, §2, §3

[5] = tested on: Acinetobacter baumanii AB 15919 (IV369-2012, dermatitis field isolate); test: MIC, broth-microdilution (CLSI VET01-A4); format: cell-based; conditions: strain AB 15919
Protocol: as §1, §2, §3

[6] = tested on: Staphylococcus aureus SA 5816 (2139, mastitis field isolate); test: MIC, broth-microdilution (CLSI VET01-A4); format: cell-based; conditions: strain SA 5816
Protocol: as §1, §2, §3

[7] = tested on: Pasteurella multocida PM 12080 (IV102277-0093, BRD field isolate); test: MIC, broth-microdilution (CLSI VET01-A4); format: cell-based; conditions: strain PM 12080
In short: (§4)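 Compounds were tested in microdilution trays as twofold serial dilutions. The MIC was taken as the lowest concentration with no turbidity visible to the unaided eye, and results were interpreted per CLSI VET01-S3.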

[8] = tested on: Pasteurella multocida PM 10775 (080130003051, BRD field isolate); test: MIC, broth-microdilution (CLSI VET01-A4); format: cell-based; conditions: strain PM 10775
In short: as §4

[9] = tested on: Mannheimia haemolytica MH 10720 (154, BRD field isolate); test: MIC, broth-microdilution (CLSI VET01-A4); format: cell-based; conditions: strain MH 10720
In short: as §4

[10] = tested on: Pasteurella multocida PM 6391 (ATCC 43137, reference strain); test: MIC, broth-microdilution (CLSI VET01-A4); format: cell-based; conditions: strain PM 6391
In short: as §4

[11] = tested on: Mannheimia haemolytica MH 6357 (M7/2, reference strain, cattle infection strain); test: MIC, broth-microdilution (CLSI VET01-A4); format: cell-based; conditions: strain MH 6357
In short: as §4

[12] = tested on: Mannheimia haemolytica MH 6374 (ATCC 33396, reference strain); test: MIC, broth-microdilution (CLSI VET01-A4); format: cell-based; conditions: strain MH 6374
In short: as §4

[13] = tested on: Mannheimia haemolytica MH 12587 (1071, BRD field isolate, macrolide-resistance: erm+, E+); test: MIC, broth-microdilution (CLSI VET01-A4); format: cell-based; conditions: strain MH 12587, macrolide-resistant
In short: as §4

[14] = tested on: Pasteurella multocida PM 6267 (P 2225 (L386), reference strain, mouse infection strain); test: MIC, broth-microdilution (CLSI VET01-A4); format: cell-based; conditions: strain PM 6267
In short: as §4

[15] = tested on: 40 isolates of Pasteurella (P.) multocida; test: MIC50/MIC90, broth-microdilution, European respiratory tract isolates; format: cell-based
Protocol: (§5) The in vitro activity of compounds against 20 isolates of Actinobacillus (A.) pleuropneumoniae, 20 of Bordetella (B.) bronchiseptica, 20 of Histophilus (H.) somni, 40 of Mannheimia (M.) haemolytica and 40 of Pasteurella (P.) multocida collected in different European countries were determined. All bacteria were isolated from the respiratory tract of swine and cattle suffering from respiratory disease. All isolates were epidemiologically unrelated as specified by the different suppliers.
(§6) The minimum inhibitory concentrations (MIC) of compounds according to the invention were determined by the broth-microdilution method according to CLSI document VET01-A4.
(§7) Microdilution trays containing a doubling dilution series of the test compounds were used for the tests.
as §3

[16] = tested on: 40 isolates of Mannheimia (M.) haemolytica; test: as above; format: cell-based
Protocol: as §5, §6, §7, §3

[17] = tested on: 20 isolates of Actinobacillus (A.) pleuropneumoniae; test: as above; format: cell-based
Protocol: as §5, §6, §7, §3

[18] = tested on: 20 isolates of Bordetella (B.) bronchiseptica; test: as above; format: cell-based
Protocol: as §5, §6, §7, §3

[19] = tested on: 20 isolates of Histophilus (H.) somni; test: as above; format: cell-based
Protocol: as §5, §6, §7, §3

[20] = Plasma and tissue concentrations in infected calves (Example 10); format: in vivo, cattle calves; conditions: SC single 10 mg/kg (C 231 in 10% Poloxamer 188; C 329 in 35% Cavitron), individual animals and mean
M. haemolytica = test: Mannheimia haemolytica cattle lung infection model, efficacy (Example 10); format: in vivo, cattle calves; conditions: for Food consumption, cumulated for all animals in the group: 3 calves, 10 mg/kg
Protocol: Unless otherwise described the study was conducted as described in Clinical Example 8
Calves were infected via intratracheal instillation of appr. 300 mL of M. haemolytica PBS suspension containing approximately 4×10^9 CFU M. haemolytica in late log phase on Day 0.
One hour later three animals each were treated with 10 mg/kg of Compound 231(referred to as C. 231) (80 mg/mL in 10% Poloxamer 188), or 10 mg/kg or 5 mg/kg Compound 329 (referred to as C. 329) (150 mg/mL in 35% Cavitron).
The following clinical findings were recorded: The general behavior scores of the animals before (DO am) and after infection with M. haemolytica in the different treated and control groups are indicated in FIG. 8-1: 0=normal; 1=slightly depressive, 2=moderately depressive, 3=highly depressive, 4=recumbency.
The following pathomorphological findings after section on Day 2 were recorded: After measuring the body weight and the lung weight the Lung body mass ratio was calculated as shown in FIG. 8-2. A healthy animal has a lung body mass ration around 1.7 or lower. The area percentage of lung consolidations compared to the total lung tissue and the lung score determined that is a combined score of such percentage of lung consoldiations and the grade. For the “grade” the degree of lung consolidation score was graded from 0 to 3 for each of eight lung lobes: 0 no visible changes, 1 low graded colour changes or induration, 2 medium graded induration, 3 high graded induration, hepatisation, necrosis.
The geometrical means (CFU/g tissue) of bacteriological re-isolations of Mannheimia haemolytica from lung tissue are illustrated in FIG. 8-4.

[21] = calves infected with M. haemolytica, SC, single, 10 mg/kg BW

COCCNCc1ccc(C#Cc2ccc(C(=O)N[C@H](C(=O)NO)[C@@H](C)O)cc2)cc1 [C. 231]
MIC [1]: >16 µg/mL
MIC [2]: >16 µg/mL
MIC [3]: 0.032 µg/mL (≈ 0.0752 µM)
MIC [4]: 0.5 µg/mL (≈ 1.18 µM)
MIC [5]: >16 µg/mL
MIC [6]: >16 µg/mL
MIC [7]: 0.063 µg/mL (≈ 0.148 µM)
MIC [8]: ≤0.016 µg/mL
MIC [9]: 0.5 µg/mL (≈ 1.18 µM)
MIC [10]: 0.063 µg/mL (≈ 0.148 µM)
MIC [11]: 0.5 µg/mL (≈ 1.18 µM)
MIC [12]: 0.25 µg/mL (≈ 0.588 µM)
MIC [13]: 0.5 µg/mL (≈ 1.18 µM)
MIC [14]: ≤0.016 µg/mL
MIC50 [15]: ≤0.016 µg/mL
MIC90 [15]: 0.063 µg/mL (≈ 0.148 µM)
MIC50 [16]: 0.5 µg/mL (≈ 1.18 µM)
MIC90 [16]: 1 µg/mL (≈ 2.35 µM)
MIC50 [17]: 0.25 µg/mL (≈ 0.588 µM)
MIC90 [17]: 0.5 µg/mL (≈ 1.18 µM)
MIC50 [18]: >16 µg/mL
MIC90 [18]: >16 µg/mL
MIC50 [19]: 0.125 µg/mL (≈ 0.294 µM)
MIC90 [19]: 0.25 µg/mL (≈ 0.588 µM)
Concentration, Tissue (48 h) ELF [20]: BLQ
Concentration, Tissue (48 h) Muscle [20]: 27 ng/mL
Concentration, Plasma 0.5 h ([20]; 10 mg/kg): 1150 ng/mL (2×) and 1320 ng/mL
Concentration, Plasma 2 h ([20]; 10 mg/kg): 448 ng/mL and 468 ng/mL and 447 ng/mL
Concentration, Plasma 4 h ([20]; 10 mg/kg): 179 ng/mL and 171 ng/mL and 180 ng/mL
Concentration, Plasma 6 h ([20]; 10 mg/kg): 83.9 ng/mL and 82.8 ng/mL and 102 ng/mL
Concentration, Plasma 24 h ([20]; 10 mg/kg): 6.21 ng/mL and 10.8 ng/mL and 7.47 ng/mL
Concentration, Plasma 48 h ([20]; 10 mg/kg): BLQ and 7.16 ng/mL and 5.74 ng/mL
Concentration, Tissue (48 h) Kidney ([20]; 10 mg/kg): 56 ng/mL and 53.8 ng/mL and 79.3 ng/mL
Concentration, Tissue (48 h) Liver ([20]; 10 mg/kg): 48.7 ng/mL and 41.2 ng/mL and 66.9 ng/mL
Concentration, Tissue (48 h) Lung ([20]; 10 mg/kg): 26.6 ng/mL and BLQ and 22.4 ng/mL
Concentration, Tissue (48 h) Muscle ([20]; 10 mg/kg): BLQ
Concentration, Plasma 0 h ([20]; predose): BLQ
Food consumption, cumulated for all animals in the group (M. haemolytica; D 0 am, after infection and treatment): 1800** g
Food consumption, cumulated for all animals in the group (M. haemolytica; D 0 pm): 4800 g
Food consumption, cumulated for all animals in the group (M. haemolytica; D +1 am): 4800 g
Food consumption, cumulated for all animals in the group (M. haemolytica; D +1 pm): 4800 g
Food consumption, cumulated for all animals in the group (M. haemolytica; D −1 (before infection)): 4800 g
Bacteriological Cure (x of n) (M. haemolytica; [21]): 2/3
Survival (x of n) (M. haemolytica; [21]): 3/3
efficacy against an artificial lung infection with M. haemolytica in the calf (M. haemolytica; tested dosages 10 mg/kg for C 231 and 10 mg/kg and 5 mg/kg for C 329, conclusion in words): effective

CCCNCc1ccc(C#Cc2ccc(C(=O)N[C@H](C(=O)NO)[C@@H](C)O)cc2)cc1 [C. 251]
MIC [1]: >16 µg/mL
MIC [2]: >16 µg/mL
MIC [3]: 8 µg/mL (≈ 19.5 µM)
MIC [4]: 8 µg/mL (≈ 19.5 µM)
MIC [5]: >16 µg/mL
MIC [6]: >16 µg/mL
MIC [7]: 0.063 µg/mL (≈ 0.154 µM)
MIC [8]: 8 µg/mL (≈ 19.5 µM)
MIC [9]: 0.25 µg/mL (≈ 0.611 µM)
MIC [10]: 8 µg/mL (≈ 19.5 µM)
MIC [11]: 2 µg/mL (≈ 4.88 µM)
MIC [12]: 8 µg/mL (≈ 19.5 µM)
MIC [13]: 2 µg/mL (≈ 4.88 µM)
MIC [14]: 1 µg/mL (≈ 2.44 µM)
MIC50 [15]: 0.063 µg/mL (≈ 0.154 µM)
MIC90 [15]: 0.125 µg/mL (≈ 0.305 µM)
MIC50 [16]: 1 µg/mL (≈ 2.44 µM)
MIC90 [16]: 1 µg/mL (≈ 2.44 µM)
MIC50 [17]: 0.25 µg/mL (≈ 0.611 µM)
MIC90 [17]: 0.5 µg/mL (≈ 1.22 µM)
MIC50 [18]: >16 µg/mL
MIC90 [18]: >16 µg/mL
MIC50 [19]: 0.125 µg/mL (≈ 0.305 µM)
MIC90 [19]: 0.25 µg/mL (≈ 0.611 µM)
